Patent US9561228B2 (Celgene Avilomics Research, Inc., priority 2013, dated 2017)
Read-outs that look alike come from different tables or passages of the source.

Assays:
[1] = system: A375 cells (malignant melanoma); assay: Inhibition of cancer cell proliferation, A375 (CellTiterGlo, 72 hours); format: cell-based; conditions: Homo sapiens, A-375
Procedure: Measurement of Inhibition of Cancer Cell Proliferation (A375/Malignant Melanoma)
The following protocol used an A375 cell line, which cell line is a model for malignant melanoma. A375 cells were split and 3000 cells in […] of growth medium were added per well of a flat-bottom 96-well plate. A two-fold test compound solution in serum-free DMEM was made, starting at 5,000 nM. Then, 3-fold serial dilutions were made across the plate from well 1 to well 11. Well 12, the last well in a row on the plate, was left as untreated control. 100 μl compound solutions were then transferred to the wells, so the total volume of media was 200 μl per well. Plates were returned to a 37° C. incubator, and the cells were cultured for 72 hours. To measure cell proliferation after 72 hours, media was discarded from the plates, 50 μl/well of fresh medium was added, and 50 μl CellTiterGlo solution was added (Promega Cat#G7573). The plate was covered with a dark lid and incubated for 10 min. A white sealing tape was applied to the bottom of the plate, and the plate was read in a luminescence plate reader. […] 50 μl CellTiterGlo was added per well, and the plate was read in a luminescence plate reader after 10 min. The reading was plotted vs. cell number to generate a standard curve and the equation of the curve fit. The compound-treated sample luminescence readings were converted to cell numbers using the curve-fit equation. The percent of inhibition, using untreated control as 100% growth, was then calculated. GI50 was then calculated by GraphPad Prism.

[2] = system: HT-29 cells (colorectal adenocarcinoma); assay: Inhibition of cancer cell proliferation, HT-29 (CellTiterGlo, 72 hours); format: cell-based; conditions: Homo sapiens
How it was run: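 Proliferation over 72 h at 37° C was read by CellTiterGlo luminescence, translated to cell counts with a cell-density standard curve (390–50,000 cells). Compound added as 3-fold dilutions from a 5,000 nM two-fold stock to 3000 seeded HT-29 cells; GI50 from percent inhibition relative to untreated wells.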

[3] = system: ERK1/2 phosphorylation of p90RSK in A375 cells; assay: Detection of total and phosphor-RSK by MSD ELISA (A375); format: cell-based; conditions: Homo sapiens, A-375, read-out: ERK1/ERK2 PRSK A375 EC50
Procedure: Detection of Total and Phosphor-RSK by MSD ELISA (A375)
(§1) The protocol below describes an assay to measure the kinase activity of ERK1/2 to phosphorylate a substrate, p90RSK, in the presence or absence of a test compound.
A375 cells were grown in DMEM/10% FBS. Twenty four hours prior to the assay, 50,000 cells per well were plated in a 96 well flat bottom plate. Once cells attached to the plate, the medium was replaced with 100 ul of DMEM/0.1% FBS. Cells were cultured overnight in an incubator at 37° C.
Compound stock solutions of 10 mM in DMSO were prepared. 1000× dilutions were then prepared in DMSO. 1 uL of DMSO solution was then transferred to 1 ml DMEM/0.1% FBS in a deep well plate. Cell plate media was discarded, followed by addition of 100 uL of the compound-containing media. The preparation was incubated at 37° C. for 2 hrs.
Cell lysates were prepared as described below.
pRSK or Total RSK MSD Assay
(§2) MSD plates: Blank MSD plates were coated with 30 uL capture antibody (BD 610226) at a final concentration of 1 ug/mL in PBS. Both pRSK and total RSK MSD assays used the same capture antibody at the same concentration. Antibody stock concentration was 250 ug/mL. Once antibody solution was added to the MSD plate, the sides were tapped to be certain it was coated completely (visual inspection). It was then covered and placed at 4° C. overnight on a level surface.
(§3) Block MSD Plate: The coating antibody was removed and the plate was washed on a plate washer in MSD wash buffer. The last bit of wash solution was tapped out and 150 uL/well of 3% BSA in MSD wash buffer was added in. The preparation was placed on a shaker at room temperature for at least an hour.
Add samples: Media was removed from compound-treated cells and replaced with 55 uL/well MSD cell lysis buffer containing protease and phosphotase I & II inhibitors. The preparation was incubated on a shaker in a cold room for 30-45 min. The blocked MSD plate was washed a on plate washer, tapping out the last bit of wash solution, followed by addition of 50 uL (of the 55 ul) cell lysate in a well-well transfer. The preparation was covered and incubated on a shaker at room temp for 2 hours. The lysate was removed, washed on a plate washer 3 times, and the last bit of wash buffer was tapped out and replace with 25 uL/well detection antibody (described below).
For pRSK detection, a pRSK antibody stock of 21 ug/mL was prepared as follows: 1 ug/mL pRSK Ser380 antibody (Cell Signaling Technology, Cat. #9335)+1:750 anti-rabbit SulfoTag (Mesoscale Discovery, Cat. # R32AB-1) in 1% BSA in MSD wash buffer.
(§4) For total RSK detection, a total RSK antibody stock of 200 ug/mL was prepared as follows: 1 ug/mL total RSK (Santa Cruz sc-231G) antibody+1:750 anti-goat SulfoTag (from MSD, R32AG-1) in 1% BSA in MSD wash buffer.
The plate was incubated for 1 hr at room temperature on a shaker, followed by three washings. The last bit of wash buffer was tapped out. 150 uL/well 1×MSD Read buffer was added and the plate was then analyzed.

[4] = system: ERK1/2 phosphorylation of p90RSK in HCT116 cells; assay: Detection of total and phospho-RSK by MSD ELISA (HCT116); format: cell-based; conditions: Homo sapiens, HCT-116, read-out: ERK1/ERK2 PRSK HCT116 EC50
Procedure: Detection of Total and Phospho-RSK by MSD ELISA (HCT116)
as §1
HCT116 cells were grown in RPMI/10% FBS. Prior to the assay, 50,000 cells per well were plated in a 96 well flat bottom plate. Cells were cultured overnight in an incubator at 37° C.
Compound stocks were 10 mM in DMSO. A 1000× dilution was made in DMSO. 1 uL of the DMSO solution was transferred to 1 ml RPMI/10% FBS in a deep well plate. Media in the cell plate was discarded, and 100 uL of the compound-containing media was added. The preparation was incubated at 37° C. for 2 hrs.
Preparation of cell lysates are described below.
pRSK or total RSK MSD Assay
as §2, with “to” for “to the”
as §3, with “uL/well” for “uL/well of”, “BSA (MSD Blocker A)” for “BSA”, “added.” for “added in.”
Add samples: Media was removed from compound-treated cells and replaced with 55 uL/well MSD cell lysis buffer containing protease and phosphotase I & II inhibitors. The preparations was incubate on a shaker in a cold room for 30-45 min. The blocked MSD plate was washed on a plate washer, and the last bit of wash solution was tapped out. Next was added 50 uL (of the 55 uL) cell lysate in a well-well transfer. The preparation was covered and incubated on shaker at room temp for 2 hours. The lysate was then removed and washed on plate washer 3 times. The last bit of wash buffer was then tapped out and replaced with 25 uL/well detection antibody (described below).
For pRSK detection, a pRSK antibody stock of 21 ug/mL was prepared as follows: 1 ug/mL pRSK Ser380 antibody (Cell Signaling Technology, Cat. #9335)+1:750 anti-rabbit SulfoTag (from MSD, R32AB-1) in 1% BSA in MSD wash buffer.
as §4
The plate was incubated for 1 hr at room temperature on a shaker, followed by three washes. The last bit of wash buffer was tapped out. Next, 150 uL/well 1×MSD Read buffer was added and the plate was analyzed by the MSD reader.

MEK1 activated ERK1 = biological target: T1, MEK1 activated ERK1 (Homo sapiens, UniProt P27361); assay: Omnia continuous-read kinase assay for potency against MEK1 activated ERK1; format: biochemical
T1 construct: purchased Millipore (Billerica, Mass.) 14-439-K
How it was run: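 Apparent IC50 came from initial reaction slopes (RFU vs time) plotted against log inhibitor with a variable-slope fit. Reactions were started with ERK1 (4 nM final) added to 50 μM ATP, roughly at its appKM, and 10 μM Sox-conjugated ST17 peptide in 20 mM Tris pH 7.5, 5 mM MgCl2. Fluorescence was monitored every 71 seconds.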

[5] = system: ERK1/2 phosphorylation of p90RSK in HT29 cells; assay: pRSK MSD Assay in HT29 cells; format: cell-based; conditions: Homo sapiens, HT-29, read-out: ERK1/ERK2 PRSK MSD HT29 EC50
How it was run: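 Phospho-RSK level, read by electrochemiluminescence on RSK-antibody-coated MSD plates with a phospho-RSK/Sulfo-tag detection pair, reports cellular ERK1/2 activity. HT29 cells, kept overnight in 0.1% FBS medium, were exposed to compound for 120 min at 37° C before lysis.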

T1 sequence (P27361 whole entry): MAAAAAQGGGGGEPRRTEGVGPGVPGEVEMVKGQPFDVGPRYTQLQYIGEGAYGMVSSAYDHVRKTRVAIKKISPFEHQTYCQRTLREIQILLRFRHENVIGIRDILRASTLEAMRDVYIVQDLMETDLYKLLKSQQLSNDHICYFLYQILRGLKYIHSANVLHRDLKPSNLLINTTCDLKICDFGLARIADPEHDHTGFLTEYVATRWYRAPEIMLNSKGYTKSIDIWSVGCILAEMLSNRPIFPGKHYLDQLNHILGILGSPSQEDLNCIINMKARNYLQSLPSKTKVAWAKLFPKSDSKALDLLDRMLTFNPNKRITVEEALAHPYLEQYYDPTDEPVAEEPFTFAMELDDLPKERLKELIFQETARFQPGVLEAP

GI50 [1]	GI50 [2]	EC50 [3]	EC50 [4]	IC50 (MEK1 activated ERK1; MEK1 activated ERK1, ATP at KM, read-out: ERK1 Omnia WT ATP KM IC50)	EC50 [5]	IC50 (MEK1 activated ERK1; ATP at KM, WT)	Compound
101 to 500 nM	< 100 nM	–	–	–	–	–	C=CC(=O)Nc1ccccc1Nc1nc(NC2CCC(=O)CC2)ncc1C(F)(F)F [Compound I-23, N-(2-((2-((4-Oxocyclohexyl)amino)-5-(trifluoromethyl)pyrimidin-4-yl)amino)phenyl)acrylamide]
< 100 nM	< 100 nM	–	–	–	–	–	C=CC(=O)Nc1cc(C)ccc1Nc1nc(N[C@H]2CCCN(C(=O)CC)C2)ncc1C(F)(F)F [Compound I-41, (S)—N-(5-Methyl-2-((2-((1-propionylpiperidin-3-yl)amino)-5-(trifluoromethyl)pyrimidin-4-yl)amino)phenyl)acrylamide]
–	–	> 1000 nM	> 1000 nM	501 to 999 nM	–	–	C=CC(=O)Nc1cc(C)ccc1Nc1nc(N[C@H]2CCN(S(=O)(=O)C=C)C2)ncc1C(F)(F)F [Compound I-279, (S)—N-(5-Methyl-2-((5-(trifluoromethyl)-2-((1-(vinylsulfonyl)pyrrolidin-3-yl)amino)pyrimidin-4-yl)amino)phenyl)acrylamide]
–	–	501 to 999 nM	> 1000 nM	–	501 to 999 nM	–	C#CCOc1cc(C)c(Nc2ncc(C(F)(F)F)c(Nc3ccc(C)cc3NC(=O)C=C)n2)cc1C(N)=O [Compound I-362, 5-((4-((2-acrylamido-4-methylphenyl)amino)-5-(trifluoromethyl)pyrimidin-2-yl)amino)-4-methyl-2-(prop-2-yn-1-yloxy)benzamide]
–	–	101 to 500 nM	101 to 500 nM	–	101 to 500 nM	–	C=CC(=O)Nc1cc(OCC(=O)N2CCN(C(C)=O)CC2)ccc1Nc1nc(Nc2cc(OC)ncc2C)ncc1C(F)(F)F [Compound I-404, N-(5-(2-(4-acetylpiperazin-1-yl)-2-oxoethoxy)-2-((2-((2-methoxy-5-methylpyridin-4-yl)amino)-5-(trifluoromethyl)pyrimidin-4-yl)amino)phenyl)acrylamide]
–	–	101 to 500 nM	< 100 nM	–	< 100 nM	–	C=CC(=O)Nc1cc(OCC(=O)N2CCN(S(C)(=O)=O)CC2)ccc1Nc1nc(Nc2cc(OC)ncc2C)ncc1C(F)(F)F [Compound I-405, N-(2-((2-((2-methoxy-5-methylpyridin-4-yl)amino)-5-(trifluoromethyl)pyrimidin-4-yl)amino)-5-(2-(4-(methylsulfonyl)piperazin-1-yl)-2-oxoethoxy)phenyl)acrylamide]
–	–	101 to 500 nM	101 to 500 nM	–	101 to 500 nM	–	C=CC(=O)Nc1cc(C)ccc1Nc1nc(Nc2cc(OC)ncc2OC)ncc1C(F)(F)F [Compound I-406, N-(2-((2-((2,5-dimethoxypyridin-4-yl)amino)-5-(trifluoromethyl)pyrimidin-4-yl)amino)-5-methylphenyl)acrylamide]
–	–	101 to 500 nM	101 to 500 nM	–	–	> 1000 nM	C=CC(=O)Nc1cc(C)ccc1Nc1nc(Nc2cc(OC)ncc2CO)ncc1C(F)(F)F [Compound I-428, N-(2-((2-((5-(hydroxymethyl)-2-methoxypyridin-4-yl)amino)-5-(trifluoromethyl)pyrimidin-4-yl)amino)-5-methylphenyl)acrylamide]
–	–	101 to 500 nM	501 to 999 nM	–	–	> 1000 nM	C=CC(=O)Nc1cc(C)ccc1Nc1nc(Nc2cc(OC)ncc2CF)ncc1C(F)(F)F [Compound I-429, N-(2-((2-((5-(fluoromethyl)-2-methoxypyridin-4-yl)amino)-5-(trifluoromethyl)pyrimidin-4-yl)amino)-5-methylphenyl)acrylamide]
–	–	501 to 999 nM	501 to 999 nM	–	–	501 to 999 nM	C=CC(=O)Nc1cc(C)ccc1Nc1nc(Nc2cc(OC)nn2C)ncc1C(F)(F)F [Compound I-430, N-(2-((2-((3-methoxy-1-methyl-1H-pyrazol-5-yl)amino)-5-(trifluoromethyl)pyrimidin-4-yl)amino)-5-methylphenyl)acrylamide]
